Active and inactive are the calls of the source. No cut-off for these calls is given here.
Assays:
[1] = system: 3T3SA; test: Induction of apoptosis in mouse 3T3SA cells assessed as cell morphological changes incubated for 2.5 hrs by transmission electron microscopic analysis; type: toxicity, cell-based
[2] = system: 3T3SA; test: Induction of apoptosis in RIP3shRNA transfected mouse 3T3SA cells co-transfected with shRNA-resistant RIP3 pre-tranfected for 16 hrs followed by compound addition and measured after 18 hrs in presence of zVAD by Cell Titer-Glo luminescent cell viability assay; type: toxicity, cell-based
[3] = system: BMDM; test: Induction of apoptosis in mouse BMDM cells expressing wildtype RIP3 incubated for 18 hrs by Cell Titer-Glo luminescent cell viability assay; type: toxicity, cell-based
[4] = system: 3T3SA; test: Induction of apoptosis in mouse 3T3SA cells incubated for 18 hrs in presence of 3-MA by Cell Titer-Glo luminescent cell viability assay; type: toxicity, cell-based
[5] = system: MEF; test: Inhibition of necroptosis in MEF cells expressing RIP1 K45A/K45A mutant incubated for 18 hrs by Cell Titer-Glo luminescent cell viability assay; type: functional, cell-based; settings: Mus musculus
[6] = system: MEF; test: Induction of apoptosis in MEF cells expressing RIP1 K45A/K45A mutant incubated for 18 hrs by Cell Titer-Glo luminescent cell viability assay; type: toxicity, cell-based; settings: mouse
[7] = system: SVEC4-10; test: Induction of apoptosis in mouse SVEC4-10 cells transfected with MCMV M45-encoded vIRA incubated for 18 hrs by Cell Titer-Glo luminescent cell viability assay; type: toxicity, cell-based; settings: svec4-10, 18 h
[8] = system: 3T3SA; test: Induction of apoptosis in mouse 3T3SA cells incubated for 18 hrs in presence of BMS-345541 by Cell Titer-Glo luminescent cell viability assay; type: toxicity, cell-based
[9] = system: L929; test: Inhibition of TLR-3 induced necroptosis in mouse L929 cells assessed as increase in cell viability at higher concentration incubated for 18 hrs in presence of poly(I:C) by Cell Titer-Glo luminescent cell viability assay; type: functional, cell-based
[10] = system: 3T3SA; test: Induction of apoptosis in vICA expression plasmid transfected mouse 3T3SA cells co-transfected with shRNA-resistant RIP3 incubated for 12 hrs by Cell Titer-Glo luminescent cell viability assay; type: toxicity, cell-based
[11] = system: 3T3SA; test: Induction of apoptosis in mouse 3T3SA cells assessed as cell death by measuring percent of PI positive cells incubated for 8 hrs by PI staining based flow cytometric analysis (reference value: 11.4%); type: toxicity
[12] = system: 3T3SA; test: Induction of apoptosis in mouse 3T3SA cells assessed as increase in caspase3/7 proteolytic activity incubated for 2.5 hrs; type: toxicity, cell-based
[13] = system: 3T3SA; test: Induction of apoptosis in RIP3 shRNA transfected mouse 3T3SA cells co-transfected with shRNA resistant RIP3 D143N mutant assessed as accumulation of FLAG-tagged RIP3 D143N mutant in pellet incubated for 3 hrs in presence of zVAD by immunoblot analysis; type: toxicity, cell-based
[14] = system: 3T3SA; test: Induction of apoptosis in vICA expression plasmid transfected mouse 3T3SA cells co-transfected with shRNA-resistant RIP3 D161G mutant incubated for 12 hrs by Cell Titer-Glo luminescent cell viability assay; type: toxicity, cell-based
[15] = system: 3T3SA; test: Induction of apoptosis in mouse 3T3SA cells transfected with RIP3 shRNA at 10 uM incubated for 18 hrs by Cell Titer-Glo luminescent cell viability assay; type: toxicity, cell-based
[16] = system: BMDM; test: Induction of apoptosis in mouse BMDM cells expressing RIP3 K51A/K51A mutant incubated for 18 hrs by Cell Titer-Glo luminescent cell viability assay; type: toxicity, cell-based
[17] = system: SVEC4-10; test: Induction of apoptosis in mouse SVEC4-10 cells transfected with RIP3 shRNA at 10 uM incubated for 18 hrs by Cell Titer-Glo luminescent cell viability assay; type: toxicity, cell-based; settings: svec4-10, 18 h
[18] = system: 3T3SA; test: Induction of apoptosis in mouse 3T3SA cells in presence of vIRA by Cell Titer-Glo luminescent cell viability assay; type: toxicity, cell-based
[19] = system: 3T3SA; test: Induction of apoptosis in RIP3 shRNA transfected mouse 3T3SA cells co-transfected with shRNA resistant RIP3 K51A mutant assessed as accumulation of RIP3 K51A mutant in pellet incubated for 3 hrs in presence of zVAD by immunoblot analysis; type: toxicity, cell-based
[20] = system: SVEC4-10; test: Inhibition of DAI-induced necroptosis in MCMV M45mutRHIM infected mouse SVEC4-10 cells assessed as increase in cell viability at 10 uM incubated for 18 hrs in presence of zVAD by Cell Titer-Glo luminescent cell viability assay; type: functional, cell-based
[21] = system: 3T3SA; test: Induction of apoptosis in mouse 3T3SA cells assessed as cleaved caspase 8 accumulation incubated for 2.5 hrs by immunoblot analysis; type: toxicity, cell-based
[22] = system: MEF; test: Induction of apoptosis in RIP3-/- MEF cells expressing dox-induced RIP3 K51A mutant assessed as RIP1-FADD association incubated for 1 hrs by immunoblot analysis; type: toxicity, cell-based; settings: mouse
[23] = system: 3T3SA; test: Induction of apoptosis in RIP3 shRNA transfected mouse 3T3SA cells co-transfected with shRNA resistant RIP3 D161G mutant assessed as accumulation of FLAG-tagged RIP3 D161G mutant in pellet incubated for 3 hrs in presence of zVAD by immunoblot analysis; type: toxicity, cell-based
[24] = system: 3T3SA; test: Induction of apoptosis in RIP3shRNA transfected mouse 3T3SA cells co-transfected with shRNA-resistant RIP3 D161G mutant pre-tranfected for 16 hrs followed by compound addition and measured after 18 hrs in presence of zVAD by Cell Titer-Glo luminescent cell viability assay; type: toxicity, cell-based
[25] = system: MEF; test: Induction of apoptosis in RIP3-/- MEF cells expressing dox-induced wildtype RIP3 assessed as RIP1-FADD association incubated for 1 hrs by immunoblot analysis; type: toxicity, cell-based; settings: mouse
[26] = system: 3T3SA; test: Induction of apoptosis in mouse 3T3SA cells incubated for 18 hrs in presence of zYVAD by Cell Titer-Glo luminescent cell viability assay; type: toxicity, cell-based
[27] = system: MEF; test: Induction of apoptosis in RIP3-/- MEF cells incubated for 18 hrs by Cell Titer-Glo luminescent cell viability assay; type: toxicity, cell-based; settings: mouse
[28] = system: 3T3SA; test: Induction of apoptosis in mouse 3T3SA cells assessed as accumulation of cleaved caspase-3 measured after 1.5 to 2.5 hrs by immunoblot analysis; type: toxicity, cell-based; settings: time 1.5-2.5 hrs
[29] = system: 3T3SA; test: Induction of apoptosis in mouse 3T3SA cells assessed as cell death by measuring percent of PI positive cells incubated for 8 hrs in presence of zVAD by PI staining based flow cytometric analysis (reference value: 11.4%); type: toxicity
[30] = system: 3T3SA; test: Induction of apoptosis in mouse 3T3SA cells incubated for 18 hrs in presence of zIETD by Cell Titer-Glo luminescent cell viability assay; type: toxicity, cell-based
[31] = target: Serine/threonine-protein kinase ULK1 (Homo sapiens) (UniProt O75385); test: Inhibition of human ULK1 using myelin basic protein as substrate at 1 uM in presence of 32P-ATP by Hotspot assay relative to control; values are per cent of control
Chain of Serine/threonine-protein kinase ULK1 (Homo sapiens) (O75385 whole entry): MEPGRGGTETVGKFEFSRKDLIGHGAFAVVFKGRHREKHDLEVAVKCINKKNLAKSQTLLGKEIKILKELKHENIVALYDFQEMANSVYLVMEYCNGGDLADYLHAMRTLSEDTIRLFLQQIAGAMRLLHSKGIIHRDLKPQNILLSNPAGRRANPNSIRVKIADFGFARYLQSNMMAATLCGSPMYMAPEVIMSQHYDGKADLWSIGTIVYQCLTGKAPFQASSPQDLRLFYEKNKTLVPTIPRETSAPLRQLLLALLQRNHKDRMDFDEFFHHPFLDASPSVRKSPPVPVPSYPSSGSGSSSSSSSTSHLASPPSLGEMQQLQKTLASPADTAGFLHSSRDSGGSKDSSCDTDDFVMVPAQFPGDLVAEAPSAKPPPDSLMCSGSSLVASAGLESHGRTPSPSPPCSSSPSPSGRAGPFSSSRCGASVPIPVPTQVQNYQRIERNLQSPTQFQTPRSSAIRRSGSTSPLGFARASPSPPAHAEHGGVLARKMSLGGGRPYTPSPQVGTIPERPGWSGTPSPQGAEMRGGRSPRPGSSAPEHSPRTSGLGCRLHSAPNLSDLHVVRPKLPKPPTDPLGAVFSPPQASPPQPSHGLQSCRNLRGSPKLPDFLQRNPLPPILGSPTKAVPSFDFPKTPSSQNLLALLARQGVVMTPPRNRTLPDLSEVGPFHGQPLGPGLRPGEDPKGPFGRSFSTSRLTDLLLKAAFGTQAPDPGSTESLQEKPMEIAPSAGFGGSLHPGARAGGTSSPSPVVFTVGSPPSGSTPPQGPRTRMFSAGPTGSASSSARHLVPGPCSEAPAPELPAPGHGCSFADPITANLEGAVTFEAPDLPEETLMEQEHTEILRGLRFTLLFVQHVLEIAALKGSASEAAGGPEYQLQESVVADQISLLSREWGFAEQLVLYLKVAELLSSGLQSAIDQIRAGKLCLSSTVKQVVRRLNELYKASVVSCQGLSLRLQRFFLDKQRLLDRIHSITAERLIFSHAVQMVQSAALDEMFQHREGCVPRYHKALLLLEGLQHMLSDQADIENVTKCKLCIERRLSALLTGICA

[32] = target: Serine/threonine-protein kinase 38 (Homo sapiens) (UniProt Q15208); test: Inhibition of human STK38/NDR1 using KKRNRRLSVA as substrate at 1 uM in presence of 32P-ATP by Hotspot assay relative to control; values are per cent of control
Chain of Serine/threonine-protein kinase 38 (Homo sapiens) (Q15208 2-465 limits assumed): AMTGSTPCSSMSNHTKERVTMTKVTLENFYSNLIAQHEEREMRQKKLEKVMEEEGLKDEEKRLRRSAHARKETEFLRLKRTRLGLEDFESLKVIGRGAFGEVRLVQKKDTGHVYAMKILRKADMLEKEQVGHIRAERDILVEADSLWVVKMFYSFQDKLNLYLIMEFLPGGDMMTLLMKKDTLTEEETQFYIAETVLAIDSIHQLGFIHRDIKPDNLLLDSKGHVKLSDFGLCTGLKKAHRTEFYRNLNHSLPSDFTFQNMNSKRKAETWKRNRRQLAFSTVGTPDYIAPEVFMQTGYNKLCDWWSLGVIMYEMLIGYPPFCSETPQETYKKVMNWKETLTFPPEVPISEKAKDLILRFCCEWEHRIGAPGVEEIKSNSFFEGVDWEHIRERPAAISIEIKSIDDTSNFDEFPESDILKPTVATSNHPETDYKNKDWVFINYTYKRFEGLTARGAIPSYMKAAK

[33] = target: Serine/threonine-protein kinase tousled-like 2 (Homo sapiens) (UniProt Q86UE8); test: Inhibition of human TLK2 using casein as substrate at 1 uM in presence of 32P-ATP by Hotspot assay relative to control; values are per cent of control
Chain of Serine/threonine-protein kinase tousled-like 2 (Homo sapiens) (Q86UE8 whole entry, looked up): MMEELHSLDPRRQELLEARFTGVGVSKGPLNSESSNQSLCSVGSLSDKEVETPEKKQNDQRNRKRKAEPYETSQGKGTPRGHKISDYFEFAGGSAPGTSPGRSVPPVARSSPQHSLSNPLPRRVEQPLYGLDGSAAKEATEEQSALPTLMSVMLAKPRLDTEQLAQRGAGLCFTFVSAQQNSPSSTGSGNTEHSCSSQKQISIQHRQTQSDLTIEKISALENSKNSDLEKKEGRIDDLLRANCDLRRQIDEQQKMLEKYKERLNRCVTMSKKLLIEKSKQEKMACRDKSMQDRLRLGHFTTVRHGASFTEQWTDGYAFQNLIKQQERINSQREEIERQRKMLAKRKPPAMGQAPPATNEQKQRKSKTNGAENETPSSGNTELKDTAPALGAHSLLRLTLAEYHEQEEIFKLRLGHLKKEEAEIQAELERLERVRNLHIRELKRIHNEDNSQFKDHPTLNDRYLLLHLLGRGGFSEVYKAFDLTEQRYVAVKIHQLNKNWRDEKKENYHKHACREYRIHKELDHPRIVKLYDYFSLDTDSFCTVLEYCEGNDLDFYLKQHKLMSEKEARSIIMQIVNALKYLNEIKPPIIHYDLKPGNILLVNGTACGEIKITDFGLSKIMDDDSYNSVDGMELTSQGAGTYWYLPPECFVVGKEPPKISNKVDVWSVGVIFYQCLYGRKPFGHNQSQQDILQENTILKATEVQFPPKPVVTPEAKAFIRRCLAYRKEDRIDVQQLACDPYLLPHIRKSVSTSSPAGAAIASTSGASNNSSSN

CC(C)S(=O)(=O)c1ccc2nccc(Nc3ccc4scnc4c3)c2c1
Activity [1]: Toxic
Activity [2]: Non-Toxic
Activity [3]: Toxic
Activity [4]: Toxic
inhibition [5]: Active
Activity [6]: Non-Toxic
Activity [7]: Non-Toxic
Activity [8]: Toxic
inhibition [9]: inactive
Activity [10]: Non-Toxic
Activity [11]: 62%
Activity [12]: Toxic
Activity [13]: Toxic
Activity [14]: Non-Toxic
Activity [15]: Non-Toxic
Activity [16]: Toxic
Activity [17]: Non-Toxic
Activity [18]: Non-Toxic
Activity [19]: Toxic
inhibition [20]: Active
Activity [21]: Toxic
Activity [22]: Toxic
Activity [23]: Toxic
Activity [24]: Non-Toxic
Activity [25]: Toxic
Activity [26]: Toxic
Activity [27]: Non-Toxic
Activity [28]: Toxic
Activity [29]: 11%
Activity [30]: Non-Toxic

CNC(=O)c1ccc2c(c1)ncn2-c1ccc(CC(=O)OC(C)(C)C)cc1
residual activity [31]: 104%
residual activity [32]: 96.4%
residual activity [33]: 94.4%

From ChEMBL document CHEMBL5649166, “RIP3 induces apoptosis independent of pronecrotic kinase activity” (Mol Cell, 2014)
